Reference: PubChem BioAssay (NCI)
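Dose response: 5 concentrations. Exposure: 48 h. Format: 96-well plates. Endpoint: linear interpolation; highest concentration if not reached. Abbreviation: GI50, concentration required for 50% inhibition of growth. Definition used: TGI = concentration required for complete inhibition of growth.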

What was measured:
Experiment in all cases: NCI tumour cell line growth inhibition, 48 h; in the data active means GI50 below about 0.43 µM; inactive means the rest
SK-MEL-2 melanoma = system: SK-MEL-2 melanoma
SW-620 colon = system: SW-620 colon
MCF7 breast = system: MCF7 breast
K-562 leukemia = system: K-562 leukemia
UACC-62 melanoma = system: UACC-62 melanoma
HL-60(TB) leukemia = system: HL-60(TB) leukemia
KM12 colon = system: KM12 colon
SNB-75 CNS = system: SNB-75 CNS
SNB-19 CNS = system: SNB-19 CNS
HOP-92 NSCLC = system: HOP-92 NSCLC
M14 melanoma = system: M14 melanoma
CCRF-CEM leukemia = system: CCRF-CEM leukemia
RXF 393 renal = system: RXF 393 renal
IGROV1 ovarian = system: IGROV1 ovarian
SR leukemia = system: SR leukemia
A498 renal = system: A498 renal
HCT-15 colon = system: HCT-15 colon
U251 CNS = system: U251 CNS
DU-145 prostate = system: DU-145 prostate
RPMI-8226 leukemia = system: RPMI-8226 leukemia
CAKI-1 renal = system: CAKI-1 renal
SN12C renal = system: SN12C renal
SK-MEL-5 melanoma = system: SK-MEL-5 melanoma
MOLT-4 leukemia = system: MOLT-4 leukemia
UACC-257 melanoma = system: UACC-257 melanoma
HCC-2998 colon = system: HCC-2998 colon
T-47D breast = system: T-47D breast
MALME-3M melanoma = system: MALME-3M melanoma
OVCAR-5 ovarian = system: OVCAR-5 ovarian
SF-295 CNS = system: SF-295 CNS
BT-549 breast = system: BT-549 breast
786-0 renal = system: 786-0 renal
HS 578T breast = system: HS 578T breast
MDA-MB-435 = system: MDA-MB-435

COc1cc(C2CC(c3ccc(Cl)cc3)=NN2C(C)=O)ccc1Oc1ccnc2cc(Cl)ccc12 (stereo not drawn)
inactive: GI50 (SK-MEL-2 melanoma) 15.9 µM | GI50 (SW-620 colon) > 100 µM | GI50 (MCF7 breast) > 100 µM | GI50 (K-562 leukemia) > 100 µM | GI50 (UACC-62 melanoma) > 100 µM | GI50 (HL-60(TB) leukemia) > 100 µM | GI50 (KM12 colon) > 100 µM | GI50 (SNB-75 CNS) 1.66 µM | GI50 (SNB-19 CNS) > 100 µM | GI50 (HOP-92 NSCLC) 2.32 µM | GI50 (M14 melanoma) > 100 µM | GI50 (CCRF-CEM leukemia) > 100 µM | GI50 (RXF 393 renal) 3.32 µM | GI50 (IGROV1 ovarian) > 100 µM | GI50 (SR leukemia) > 100 µM | GI50 (A498 renal) 4.09 µM | GI50 (HCT-15 colon) > 100 µM | GI50 (U251 CNS) 3.09 µM | GI50 (DU-145 prostate) > 100 µM | GI50 (RPMI-8226 leukemia) > 100 µM | GI50 (CAKI-1 renal) > 100 µM | GI50 (SN12C renal) > 100 µM | GI50 (SK-MEL-5 melanoma) > 100 µM | GI50 (MOLT-4 leukemia) > 100 µM | GI50 (UACC-257 melanoma) > 100 µM | GI50 (HCC-2998 colon) > 100 µM | GI50 (T-47D breast) 2.85 µM | GI50 (MALME-3M melanoma) > 100 µM | GI50 (OVCAR-5 ovarian) > 100 µM | GI50 (SF-295 CNS) 4.22 µM | GI50 (BT-549 breast) 1.4 µM | GI50 (786-0 renal) 2.63 µM | GI50 (HS 578T breast) 2.94 µM | GI50 (MDA-MB-435) > 100 µM
7.76 µM: TGI (SNB-75 CNS)
20.1 µM: TGI (RXF 393 renal)
62.6 µM: TGI (HOP-92 NSCLC)
82.8 µM: TGI (SK-MEL-2 melanoma)
> 100 µM: TGI (SW-620 colon) | TGI (MCF7 breast) | TGI (K-562 leukemia) | TGI (UACC-62 melanoma) | TGI (HL-60(TB) leukemia) | TGI (KM12 colon) | TGI (SNB-19 CNS) | TGI (M14 melanoma) | TGI (CCRF-CEM leukemia) | TGI (IGROV1 ovarian) | TGI (SR leukemia) | TGI (A498 renal) | TGI (HCT-15 colon) | TGI (U251 CNS) | TGI (DU-145 prostate) | TGI (RPMI-8226 leukemia) | TGI (CAKI-1 renal) | TGI (SN12C renal) | TGI (SK-MEL-5 melanoma) | TGI (MOLT-4 leukemia) | TGI (UACC-257 melanoma) | TGI (HCC-2998 colon) | TGI (T-47D breast) | TGI (MALME-3M melanoma) | TGI (OVCAR-5 ovarian) | TGI (SF-295 CNS) | TGI (BT-549 breast) | TGI (786-0 renal) | TGI (HS 578T breast) | TGI (MDA-MB-435)
